What was measured:
cyt c/TOCL complexes = biological target: T1, cyt c/TOCL complexes (Equus caballus, UniProt P00004); assay: Peroxidase activity of cyt c/TOCL complexes, H2O2-induced oxidation of Amplex Red to resorufin; type: biochemical; settings: cyt c 1 μM, CL/cyt c 25:1, 50 μM Amplex Red, 50 μM H2O2, 20 min
T1 construct: purchased Sigma (St. Louis, Mo.)
Experimental: Conditions: cyt c (1 μM), H2O2 (50 μM), Amplex Red (50 μM). Experiments were performed in 20 mM HEPES buffer (pH 7.4) containing DTPA (100 μM), cyt c was incubated with DOPC/TOCL liposomes (1:1) at a ratio of TOCL:cyt c of 25:1.
Peroxidase activity of cyt c was assessed by oxidation of Amplex Red, etoposide or TLCL (tetra-linoleoyl-cardiolipin). Measurements of Amplex Red oxidation were performed using fluorescence of its oxidation product resorufin. Cyt c (1 μM) was incubated with tetra-oleoyl-cardiolipin (TOCL) containing liposomes (CL/cyt c ratio 25:1). Then 50 μM Amplex Red and 50 μM H2O2 were added, and the incubation proceeded for an additional 20 min. Fluorescence was detected by employing a “Fusion α” universal microplate analyzer and by using an excitation wavelength of 535 nm and an emission wavelength of 590 nm. EPR spectra of etoposide phenoxyl radicals were recorded at 25° C. in gas permeable Teflon tubings (inner diameter, 0.8 mm; thickness, 0.013; Alpha Wire Corp., Elizabeth, N.J.). Volume of samples was 60 μL. The spectra were recorded under the following conditions: 335.3 mT, center field; 2 mT, sweep width; 0.04 mT, field modulation; 10 mW, microwave power; 0.1 s, time constant; 2 min, time scan. The time course of the etoposide radical EPR signal was obtained by repeated scanning of the field (0.15 mT, sweep width; 335.3 mT, center field) corresponding to a part of the EPR signal. Peroxidase activity of mitochondria was determined by the formation of resorufin from Amplex Red. Isolated mouse liver mitochondria (0.6 mg/ml) were incubated in the presence of 100 μM Amplex Red and 2 mM tert-butyl hydroperoxide (tBOOH). After incubation at room temperature for 20 min, fluorescence of resurufin was measured.
Small unilamellar liposomes were prepared from dioleoylphosphatidylcholine (DOPC) and TOCL (1:1 ratio) or DOPC and TLCL (4:1 ratio) by sonication in HEPES buffer (20 mM with 100 μM diethylene triamine pentaacetic acid (DTPA) (pH 7.4) 3×60 sec, relaxation time 2 min, 4° C.).
Peroxidase activity of cyt c was assessed by oxidation of Amplex Red, etoposide or TLCL as described above.

[1] = test system: mouse lung endothelial cells; assay: Rotenone-induced apoptosis in mouse lung endothelial cells (PS externalization); type: cell-based; settings: 2 μM rotenone, TPP-IOA 2.5, 5 μM, 48 h
Experimental: Mouse embryonic cells (courtesy of Dr X. Wang, University of Texas, Dallas) were cultured in Dulbecco's Modified Eagle Medium (DMEM) supplemented with 15% fetal bovine serum (FBS), 25 mM Hepes, 50 mg per liter uridine, 110 mg per liter pyruvate, 2 mM glutamine, 1× nonessential amino acids, 50 μM β-mercaptoethanol, 0.5×10^6 Upper liter mouse leukaemia inhibitory factor, 100 Upper liter penicillin, and 100 mg per liter streptomycin in a humidified atmosphere of 5% CO2, 95% air at 37° C. Mouse lung endothelial cells were obtained as previously described^29. Briefly, lungs were flushed with Hank's balanced salt solution (HBSS) containing 10 U ml^−1 heparin, then homogenized and digested in type I collagenase using a gentle MACs dissociator (Miltenyi). […] At approximately passage 2, cells were incubated with fluorescently labelled diacetylated low-density lipoprotein (LDL) followed by fluorescence-activated cell sorting (FACS) for further purification. The enriched PECAM and diacetylated LDL population was sub-cultured on a collagen/gelatin matrix in 2% O2, 5% CO2, 93% nitrogen in a Coy Hypoxic Glove Box/Chamber in Opti-MEM (Gibco), 10% FBS, 2 mM glutamine, 0.2% retinal-derived growth factor (Vec Technologies), 10 U ml^−1 heparin, 0.1 mM non-essential amino acid supplement (Gibco) and 55 μM β-mercaptoethanol (Counted as passage 3). […]

mouse embryonic cells = assay: ATP levels in mouse embryonic cells (bioluminescent kit); type: cell-based
Experimental: ATP levels in cells were measured using ATP bioluminescent somatic cell assay kit (St. Louis, Mo.) according to the manufacturer's instructions.

C57BL/6NTac female mice [2] = assay: Health of non-irradiated mice after i.p. injection; type: in vivo, mouse; settings: i.p. 5 mg per kg body weight, period of study 52 days
[3] = Hydrolysis of TPP-IOA by cytosol and mitochondrial fractions of mouse embryonic cells (HPLC); type: in vitro ADME
Experimental: Incubations were carried out in 0.1 M phosphate buffer (pH 7.0) for 25 min at 37° C.; and reaction was stopped with CH3CN denatured proteins were centrifuged, and the supernatant was subjected to HPLC analysis. The volume of samples was 1 ml.
To test this, assessments of esterase activity of mitochondria and cytosolic fractions isolated from mouse embryonic cells were performed based on HPLC measurements of TPP-IOA (FIG. 4). […] Thus, both TPP-IOA and its de-esterifed form, IOA, could be present in mitochondria of mouse embryonic cells.

C57BL/6NTac female mice [4] = assay: Survival of mice after 9.25 Gy total body irradiation, cesium irradiator; type: in vivo, mouse; settings: for radiomitigative effect (survival): i.p. 5 mg per kg, 10 min after irradiation

T1 sequence (P00004 2-105 limits assumed, one chain of several): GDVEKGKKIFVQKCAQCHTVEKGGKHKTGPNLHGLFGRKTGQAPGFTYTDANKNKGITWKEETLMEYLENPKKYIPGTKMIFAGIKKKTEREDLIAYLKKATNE

Compound | inhibition of peroxidase activity of cyt c/TOCL complexes (Amplex Red oxidation) (cyt c/TOCL complexes) | inhibition of rotenone-induced apoptosis [1] | effect on ATP levels (mouse embryonic cells) | adverse side effects in non-irradiated mice (C57BL/6NTac female mice [2]) | hydrolysis rate in mitochondria ([3]; 1 mg protein/ml, pH 7.0, 37° C.) | hydrolysis of the ester bond by endogenous esterases ([3]; mitochondria and cytosol of mouse embryonic cells) | P (two-sided log-rank test), TPP-IOA versus TPP-ISA (C57BL/6NTac female mice [4]; 5 mg per kg 10 min after irradiation) | radiomitigative effect (survival) (C57BL/6NTac female mice [4])
CCCCCCC(C/C=C\CCCCCCCC(=O)OCCC[P+](c1ccccc1)(c1ccccc1)c1ccccc1)n1ccnc1.[Br-] (stereo not drawn) [TPP-IOA] | as effective as non-conjugated ISA and IOA | effectively inhibited apoptosis | Neither TPP-IOA nor TPP-ISA had any effect | no adverse side effects were noticed | comparable to that in the cytosolic fraction | hydrolysis of TPP-IOA takes place in both mitochondria and the cytosol | 0.6389 | strong radiomitigative effect
CCCCCCC(CCCCCCCCCCC(=O)OCCC[P+](c1ccccc1)(c1ccccc1)c1ccccc1)n1ccnc1.[Br-] (stereo not drawn) [TPP-ISA] | as effective as non-conjugated ISA and IOA | – | Neither TPP-IOA nor TPP-ISA had any effect | no adverse side effects were noticed | – | – | – | strong radiomitigative effect

— patent US9365597B2, “Mitochondria-targeted inhibitors of cytochrome c peroxidase for protection from apoptosis” (Brock University, priority 2011, dated 2016)
